Structures are written as SMILES.

The test system of assay [1] is hepatic ischemia-reperfusion (I/R) injury. In words: Murine hepatic ischemia-reperfusion injury model. The format is in vivo, mice. As to conditions: for serum liver transaminase (ALT) levels: C57-BL6/J mice, after five hours reperfusion, compared to vehicle. The method, then:
The ability of compound (3-1) to provide cytoprotective benefit in a model of hepatic ischemia-reperfusion (I/R) injury was tested in mice.
The mice used in these studies were C57-BL6/J mice, 8-10 weeks, (Jackson Laboratory, Bar Harbor, Me.). Food and water were provided ad libitum. Test animals were allowed to acclimate in a temperature and humidity controlled environment prior to the commencement of experimental procedures.
Mice were anesthetized with ketamine and xylazine and maintained with warming during surgical procedures to induce hepatic ischemia-reperfusion (UR) injury. Specifically, a midline incision was performed to expose the liver, and heparin was injected to prevent blood clotting. Both the hepatic artery and portal vein were clamped with microaneurysm clamps to render the left lateral and median lobes of the liver ischemic. Ischemia proceeded for 45 minutes, with the liver maintained in the peritoneal cavity in its original location and kept moist with gauze soaked with 0.9% normal saline. Control mice received sham surgeries, although hepatic blood flow was not reduced with a microaneurysm clamp. At the end of 45 minutes, microaneurysm clamps were removed. Serum liver transaminase levels (ALT) were tested after five hours of hepatic reperfusion using spectrophotometry and commercially available reagents (Sigma-Aldrich).
Murine hepatic ischemia-reperfusion injury test animals were randomized to four groups. Group 1: vehicle (EtOH/PEG300+0.1% citric acid) treated; Group 2: treatment with 7 mg/kg Compound (3-1); Group 3: treatment with 15.0 mg/kg Compound (3-1). […] ALT levels were reduced in the two treatment groups (7.0 mg/kg, and 15.0 mg/kg), compared to vehicle.

Assay [2] deals with myocardial ischemia-reperfusion (I/R) injury. In words: Murine myocardial ischemia reperfusion model. Type of assay: in vivo, mice. How it is done: The ability of compound (3-1) to provide cardioprotective benefits in a myocardial ischemia-reperfusion (I/R) injury model was tested in mice. In this study, it is shown that bolus administration of compound (3-1) into the left ventricular cavity post-ischemia and five minutes prior to a 24-hour reperfusion period reduced myocardial ischemia and reduced myocardial infarct size as a percentage of risk area. The mice used in these studies were C57-BL6/J mice, 8-10 weeks, (Jackson Laboratory, Bar Harbor, Me.). Food and water were provided ad libitum. Test animals were allowed to acclimate in a temperature and humidity controlled environment prior to the commencement of experimental procedures.
Mice were anesthetized with ketamine and pentobarbital sodium and maintained with warming during surgical procedures to induce myocardial ischemia-reperfusion (I/R) injury. […]
After 24 hours of reperfusion, post-ischemia, mice were anesthetized, intubated, and connected to a rodent ventilator. […] Each of the five myocardial slices (1-mm) were weighed, areas of infarction, area at risk (AAR), and non-ischemic left ventricle were assessed with computer-assisted planimetry by an observer blinded to sample identity. […]
Data were analyzed by 2-way ANOVA with post-hoc Bonferroni analysis using StatView software version 5.0 (SAS Institute). […]

`c1ccc(CSSSSCc2ccccc2)cc1` [Compound 3-1, 1,4-dibenzyltetrasulfane]: the “serum liver transaminase (ALT) levels” value in assay [1] (7 mg/kg intraperitoneal bolus post-ischemia (45 min)) was “statistically significant reduction”; in assay [1] (15.0 mg/kg intraperitoneal bolus post-ischemia (45 min)), “reduced”. Also, in assay [1] (mice, intraperitoneal bolus post-hepatic ischemia, immediately prior to five hour reperfusion, dose not given), the “liver transaminase alanine aminotransferase (ALT) measured in serum” value is listed as “decreased”. Moreover, in assay [2] (C57-BL6/J mice, 7 mg/kg bolus into left ventricular cavity after 30 minutes ischemia, five minutes prior to 24 hour reperfusion), the “myocardial infarct size as a percentage of risk area” value was “reduced”. Also, in assay [2] (mice, bolus into left ventricular cavity post-ischemia, five minutes prior to 24-hour reperfusion), the myocardial ischemia entry was “reduced”.

The record behind these values is US8202997B2, “Compositions and methods for treating or preventing hypoxic or ischemic injury” (Ikaria, Inc., priority 2008, dated 2012).
